Experimental findings from patent publication US20170253581A1, “SUBSTITUTED HETEROCYCLES AS c-MYC TARGETING AGENTS” (Northwestern University, priority 2016, published 2017) are described below.

Chain of Myc/Max binding to DNA (P01106 whole entry): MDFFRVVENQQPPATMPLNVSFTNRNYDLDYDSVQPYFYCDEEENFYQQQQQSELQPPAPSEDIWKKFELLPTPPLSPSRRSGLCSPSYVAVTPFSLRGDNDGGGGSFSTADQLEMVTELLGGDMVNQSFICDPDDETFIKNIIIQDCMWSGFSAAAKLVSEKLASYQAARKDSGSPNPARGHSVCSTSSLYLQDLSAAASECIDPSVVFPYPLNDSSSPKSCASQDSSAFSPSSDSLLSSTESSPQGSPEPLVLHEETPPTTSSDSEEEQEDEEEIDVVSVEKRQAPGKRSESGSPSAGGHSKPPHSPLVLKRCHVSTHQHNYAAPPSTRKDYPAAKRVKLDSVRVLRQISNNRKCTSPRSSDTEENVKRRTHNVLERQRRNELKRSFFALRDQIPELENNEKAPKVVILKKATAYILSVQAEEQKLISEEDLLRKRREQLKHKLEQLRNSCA

This assay deals with Myc/Max binding to DNA (Homo sapiens, UniProt P01106). The assay is described as follows: Electrophoretic mobility shift assay (EMSA) of Myc/Max binding to DNA. The format is biochemical. The following applies: EMSA, 100 uM test compound; read-out: Bound DNA (%) (100uM). The method, then:
We also tested our best hit compound Min9 (NUCC-0176234) and newly synthesized analogs for effects of these compounds on Myc/Max binding to DNA in electrophoretic mobility shift assays (EMSAs). (See FIG. 5a and FIG. 5b). We expected the active compounds to impair Myc/Max binding to DNA. Several strucutural analogs of Min9 were tested over multiple doses for inhibiting Myc-DNA binding and we observed a dose-dependent inhibition. (See FIG. 5c).
Additional compounds were synthesized and tested in the EMSA assay at concentrations of 200 μM, 100 μM, and 50 μM.
Turning to `Oc1cc(OCc2ccc(Cl)cc2)ccc1-c1n[nH]cc1Oc1ccccc1Cl` [compound 0196343], the remaining activity at 100 µM was 48%.
The same measure for `Cc1ccc(-c2c(-c3ccc(OCc4ccc(Cl)cc4)cc3O)n[nH]c2C(F)(F)F)cc1` [compound 0196344]: 16%.
Regarding `Cc1ccc(-c2c[nH]nc2-c2ccc(OCc3ccc(Cl)cc3)cc2O)cc1` [compound 0196345], the remaining activity at 100 µM turned out to be 102%.
Consider `Cc1ccc(-c2cn(C)nc2-c2ccc(OCc3ccc(Cl)cc3)cc2O)cc1` [compound 0196346], for which the remaining activity at 100 µM came out at 114%.
`Oc1cc(OCc2ccc(Cl)cc2)ccc1-c1n[nH]c(C(F)(F)F)c1-c1ccc(F)cc1` [compound 0196347]: the remaining activity at 100 µM came out at 47%.
For `Cn1nc(-c2ccc(OCc3ccc(Cl)cc3)cc2O)c(-c2ccc(F)cc2)c1C(F)(F)F` [compound 0196348], the remaining activity at 100 µM was 9%.
The same measure for `Cn1cc(-c2ccc(F)cc2)c(-c2ccc(OCc3ccc(Cl)cc3)cc2O)n1` [compound 0196349]: 135%; for `Oc1cc(OCc2ccc(Cl)cc2)ccc1-c1n[nH]cc1-c1cccc(Cl)c1` [compound 0196350]: 18%.
The same measure for `Cn1cc(-c2cccc(Cl)c2)c(-c2ccc(OCc3ccc(Cl)cc3)cc2O)n1` [compound 0196351]: 130%.
The same measure for `CCc1ccc(Oc2c(-c3ccc(OCc4ccc(Cl)cc4)cc3OC)nn(C)c2C(F)(F)F)cc1` [compound 0196352]: 65%.
For the molecule `CCc1ccc(Oc2c(-c3ccc(OCc4ccc(Cl)cc4)cc3)nn(C)c2C(F)(F)F)cc1` [compound 0196353], the remaining activity at 100 µM is 122%.
Consider `CCc1ccc(Oc2c(-c3ccc(OCc4ccc(Cl)c(Cl)c4)cc3O)nn(C)c2C(F)(F)F)cc1` [compound 0196354], for which the remaining activity at 100 µM came out at 82%.
In the case of `CCc1ccc(Oc2c(-c3ccc(OCc4ccc(Cl)c(Cl)c4)cc3O)n[nH]c2C(F)(F)F)cc1` [compound 0196355], the remaining activity at 100 µM was determined as 25%.
`CCc1ccc(Oc2c(-c3ccc(OCCc4ccc(Cl)cc4)cc3O)nn(C)c2C(F)(F)F)cc1` [compound 0196356]: the remaining activity at 100 µM was 68%.
The figure for `CCc1ccc(Oc2c(-c3ccc(OCCc4ccc(Cl)cc4)cc3O)n[nH]c2C(F)(F)F)cc1` [compound 0196357] is 28%; for `CCc1ccc(Oc2c(-c3ccc(OCc4ccc(OC)cc4)cc3O)nn(C)c2C(F)(F)F)cc1` [compound 0196358] it is 98%.
In the case of `CCc1ccc(Oc2c(-c3ccc(OCc4ccc(OC)cc4)cc3O)n[nH]c2C(F)(F)F)cc1` [compound 0196359], the remaining activity at 100 µM came to 57%.
Take `Cn1nc(-c2ccc(OCc3ccc(Cl)cc3)cc2O)c(-c2cc(C(F)(F)F)cc(C(F)(F)F)c2)c1C(F)(F)F` [compound 0196360]: the remaining activity at 100 µM came out at 100%.
The same measure for `Cn1nc(C(F)(F)F)c(-c2cc(C(F)(F)F)cc(C(F)(F)F)c2)c1-c1ccc(OCc2ccc(Cl)cc2)cc1O` [compound 0196361]: 0%; for `Oc1cc(OCc2ccc(Cl)cc2)ccc1-c1n[nH]c(C(F)(F)F)c1-c1cc(C(F)(F)F)cc(C(F)(F)F)c1` [compound 0196362]: 33%.
For `Oc1cc(OCc2ccc(Cl)cc2)ccc1-c1n[nH]c(C(F)(F)F)c1-c1ccccc1Cl` [compound 0196363], the remaining activity at 100 µM was 5%.
The same measure for `Cn1nc(-c2ccc(OCc3ccc(Cl)cc3)cc2O)c(-c2cccnc2)c1C(F)(F)F` [compound 0196364]: 132%.
Take `Cn1nc(C(F)(F)F)c(-c2cccnc2)c1-c1ccc(OCc2ccc(Cl)cc2)cc1O` [compound 0196365]: the remaining activity at 100 µM was found to be 98%.
The figure for `Oc1cc(OCc2ccc(Cl)cc2)ccc1-c1n[nH]c(C(F)(F)F)c1-c1cccnc1` [compound 0196366] is 79%; for `Oc1cc(OCc2ccc(Cl)cc2)ccc1-c1n[nH]cc1-c1ccccc1` [compound 0198293] it is 70%.
With `Cn1cc(-c2ccccc2)c(-c2ccc(OCc3ccc(Cl)cc3)cc2O)n1` [compound 0198294], the remaining activity at 100 µM amounted to 97%.
The figure for `Oc1cc(OCc2ccc(Cl)cc2)ccc1-c1n[nH]c(C(F)(F)F)c1-c1ccccc1` [compound 0198295] is 0%; for `Cn1nc(C(F)(F)F)c(-c2ccccc2)c1-c1ccc(OCc2ccc(Cl)cc2)cc1O` [compound 0198296] it is 74%.
The figure for `Cn1nc(-c2ccc(OCc3ccc(Cl)cc3)cc2O)c(-c2ccccc2)c1C(F)(F)F` [compound 0198297] is 89%.
The same measure for `Cc1[nH]nc(-c2ccc(OCc3ccc(Cl)cc3)cc2O)c1-c1ccccc1` [compound 0198298]: 88%; for `Cc1nn(C)c(-c2ccc(OCc3ccc(Cl)cc3)cc2O)c1-c1ccccc1` [compound 0198299]: 90%.
Consider `Cc1c(-c2ccccc2)c(-c2ccc(OCc3ccc(Cl)cc3)cc2O)nn1C` [compound 0198300], for which the remaining activity at 100 µM turned out to be 94%.
The figure for `CCc1[nH]nc(-c2ccc(OCc3ccc(Cl)cc3)cc2O)c1-c1ccccc1` [compound 0198301] is 105%; for `CCc1nn(C)c(-c2ccc(OCc3ccc(Cl)cc3)cc2O)c1-c1ccccc1` [compound 0198302] it is 100%; for `CCc1c(-c2ccccc2)c(-c2ccc(OCc3ccc(Cl)cc3)cc2O)nn1C` [compound 0198303] it is 105%.
The same measure for `COc1ccc(-c2c[nH]nc2-c2ccc(OCc3ccc(Cl)cc3)cc2O)cc1` [compound 0198304]: 98%.
Turning to `COc1ccc(-c2cn(C)nc2-c2ccc(OCc3ccc(Cl)cc3)cc2O)cc1` [compound 0198305], the remaining activity at 100 µM came out at 106%.
Consider `COc1ccc(-c2c(C)nn(C)c2-c2ccc(OCc3ccc(Cl)cc3)cc2O)cc1` [compound 0198306], for which the remaining activity at 100 µM came out at 105%.
The same measure for `COc1ccc(-c2c(-c3ccc(OCc4ccc(Cl)cc4)cc3O)nn(C)c2C)cc1` [compound 0198307]: 111%.
In the case of `COc1cccc(-c2c[nH]nc2-c2ccc(OCc3ccc(Cl)cc3)cc2O)c1` [compound 0198308], the remaining activity at 100 µM came to 92%.
On to `COc1cccc(-c2c(-c3ccc(OCc4ccc(Cl)cc4)cc3O)n[nH]c2C(F)(F)F)c1` [compound 0198309], for which the remaining activity at 100 µM turned out to be 2%.
Take `COc1cccc(-c2c(C(F)(F)F)nn(C)c2-c2ccc(OCc3ccc(Cl)cc3)cc2O)c1` [compound 0198310]: the remaining activity at 100 µM was determined as 86%.
Regarding `COc1cccc(-c2c(-c3ccc(OCc4ccc(Cl)cc4)cc3O)nn(C)c2C(F)(F)F)c1` [compound 0198311], the remaining activity at 100 µM was 105%.
The same measure for `COc1cccc(-c2c(-c3ccc(OCc4ccc(Cl)cc4)cc3O)n[nH]c2C)c1` [compound 0198312]: 104%.
As for `COc1cccc(-c2c(C)nn(C)c2-c2ccc(OCc3ccc(Cl)cc3)cc2O)c1` [compound 0198313], the remaining activity at 100 µM was 105%.
The same measure for `COc1cccc(-c2c(-c3ccc(OCc4ccc(Cl)cc4)cc3O)nn(C)c2C)c1` [compound 0198314]: 104%; for `CCc1[nH]nc(-c2ccc(OCc3ccc(Cl)cc3)cc2O)c1-c1cccc(OC)c1` [compound 0198315]: 105%; for `CCc1nn(C)c(-c2ccc(OCc3ccc(Cl)cc3)cc2O)c1-c1cccc(OC)c1` [compound 0198316]: 101%.
Regarding `CCc1c(-c2cccc(OC)c2)c(-c2ccc(OCc3ccc(Cl)cc3)cc2O)nn1C` [compound 0198317], the remaining activity at 100 µM was 126%.
The same measure for `Oc1cc(OCc2ccc(Cl)cc2)ccc1-c1n[nH]cc1-c1cc(C(F)(F)F)cc(C(F)(F)F)c1` [compound 0198318]: 32%; for `Cn1cc(-c2cc(C(F)(F)F)cc(C(F)(F)F)c2)c(-c2ccc(OCc3ccc(Cl)cc3)cc2O)n1` [compound 0198319]: 96%; for `Oc1cc(OCc2ccc(Cl)cc2)ccc1-c1n[nH]cc1-c1cccnc1` [compound 0198320]: 52%.
The same measure for `Cn1cc(-c2cccnc2)c(-c2ccc(OCc3ccc(Cl)cc3)cc2O)n1` [compound 0198321]: 96%.
As for `Oc1cc(OCc2ccc(Cl)cc2)ccc1-c1n[nH]cc1-c1ccoc1` [compound 0198322], the remaining activity at 100 µM stood at 28%.
The same measure for `Cn1ncc(-c2ccoc2)c1-c1ccc(OCc2ccc(Cl)cc2)cc1O` [compound 0198323]: 70%.
`Cn1cc(-c2ccoc2)c(-c2ccc(OCc3ccc(Cl)cc3)cc2O)n1` [compound 0198324]: the remaining activity at 100 µM stood at 80%.
The same measure for `Oc1cc(OCc2ccc(Cl)cc2)ccc1-c1n[nH]c(C(F)(F)F)c1-c1ccoc1` [compound 0198325]: 60%.
As for `COc1cccc(-c2cn(C)nc2-c2ccc(OCc3ccc(Cl)cc3)cc2O)c1` [compound 0198326], the remaining activity at 100 µM worked out at 106%.
On to `Cc1cc(C)cc(-c2c[nH]nc2-c2ccc(OCc3ccc(Cl)cc3)cc2O)c1` [compound 0198352], for which the remaining activity at 100 µM was 56%.
The figure for `Cc1cc(C)cc(-c2cn(C)nc2-c2ccc(OCc3ccc(Cl)cc3)cc2O)c1` [compound 0198353] is 104%.
The figure for `Cc1cc(C)cc(-c2cnn(C)c2-c2ccc(OCc3ccc(Cl)cc3)cc2O)c1` [compound 0198354] is 85%.
The same measure for `Cc1ccccc1-c1c[nH]nc1-c1ccc(OCc2ccc(Cl)cc2)cc1O` [compound 0198355]: 75%.
